# Patent US20050267030A1, “Use of deltaPKC peptides for modulation of reactive oxygen species” (priority 2004, published 2005)
# Ends that are not written are not given here.
# Key:
# [1] = tested on: rat vascular smooth muscle cells; assay: Production of reactive oxygen species (superoxide) in vitro, loss of tempoamine signal by electron spin resonance; format: cell-based; conditions: FIG. 2
# Experimental: Example 1 details a study where inhibitors and activators of δPKC were administered to rat vascular smooth muscle cells in vitro. Cells were incubated in presence of (1) the agonist Tat-conjugated peptide ψδRACK (SEQ ID NO:5); (2) phorbol 12-myristate 13-acetate (PMA); or (3) the antagonist Tat-conjugated peptide δV1-1 (SEQ ID NO:3) plus PMA. A control cell sample was left untreated. Tempoamine ((2,2,6,6-tetramethyl-1-piperidi-nyloxy-4-amine)) was added to each culture and the loss of tempoamine signal was measured by electron spin resonance to measure superoxide production.
# PMA, a non-isozyme specific activator of PKC, stimulated a 3-4 fold increase in ROS in the cells. […] Inhibition of this PKC isoform caused a decrease in PMA-stimulated ROS production.
# Rat vascular smooth muscle cells were harvested from Zucker lean aortas by enzymatic digestion and cultured in Dulbecco's modified eagle's medium with 10% fetal bovine serum and penicillin/streptomycin under standard tissue culture conditions. The cells were incubated in the presence tempoamine ((2,2,6,6-tetramethyl-1-piperidi-nyloxy4-amine)) (100 μM) and in the presence of (1) the agonist Tat-conjugated peptide ψδRACK (10 μM); (2) phorbol 12-myristate 13-acetate (PMA, 500 ng/mL); or (3) the antagonist Tat-conjugated peptide δV1-1 (10 μM) plus PMA (500 ng/mL). A control cell sample was left untreated. The loss of tempoamine signal was measured by electron spin resonance to measure superoxide production.
# [2] = tested on: Zucker obese rats (fa/fa); assay: ROS (superoxide) production in aorta tissue homogenates of Zucker rats, electron spin resonance; format: in vivo, rat; conditions: Zucker obese rats treated, versus Zucker lean control, FIG. 3A
# Experimental: Tissue homogenates from the aortas of Zucker obese rats and of Zucker lean (Fa/fa) rats were prepared and analyzed for superoxide production using electron spin resonance with a tempomaine probe.
# TGF-β1 = TGF-β1 gene expression in rat vascular smooth muscle cells, TaqMan real time PCR; format: cell-based
# Experimental: (§1) In another study, described in Example 4, the gene transcriptional effects of insulin and the selective inhibition of PKC isoforms was examined using real-time polymerase chain reaction (TaqMan® PCR). In vitro cells were incubated with insulin and in the presence or absence of a δPKC inhibitor, δV1-1 peptide. The expression of TGF-β and core binding factor α-1 (Cbf α-1) were monitored using TaqMan® real time PCR. Rat vascular smooth muscle cells passages three through seven were prepared as describe in Example 1B. The cells were incubated with insulin (100 nm, SourceLife Technologies) or with the δPKC inhibitor peptide δV1-1, prepared as described in Example 1A. RNA isolation and purification were performed as described in Example 2 and TaqMan® real time PCR was used to analyze the relative quantity TGF-β1 and core binding factor α-1 (Cbf α-1). PCR primers and probes were obtained commercially from Applied Biosystems, Inc. and the PCR was performed on an Applied Biosystems ABI Prism 7700.
# Cbfa-1 = Cbfa-1 gene expression in rat vascular smooth muscle cells, TaqMan real time PCR; format: cell-based; conditions: cells incubated with Tat-conjugated peptide versus untreated control, FIG. 5C
# Experimental: as §1
# δPKC = assay: Translocation of δPKC in cells incubated with insulin, Western blot of cytosol and membrane fractions; format: cell-based, rat; conditions: bovine insulin 100 nM, up to 24 hours, semi-quantitative from Western blot, FIG. 4B
# Experimental: Example 3 describes a study conducted to examine to role of PKC isozymes, and in particular δPKC, in vascular fibrosis, which is accelerated during the insulin-resistant, pre-diabetic state in animals. In this study, rat vascular smooth muscle cells were incubated with bovine insulin. Translocation of PKC isozymes was assessed by Western blot analysis of the cystosolic and membrane (particulate) fractions of the cells. The subcellular localization of various PKC isozymes was assessed by […] by probing the blot with isozyme specific antibodies, such as anti-δPKC, anti-αPKC, and anti-ε PKC, etc. […]
# Rat vascular smooth muscle cells passages three through seven were prepared as described in Example 1 B. The cells were incubated with bovine insulin (100 nM) for time periods of up to 24 hours. Activation of various PKC isozymes was analyzed by harvesting the cells and separating the protein into cytosolic and membrane (particulate) fractions and examining both fractions by Western blot using anti-δPKC, anti-αPKC, and anti-ε PKC for the presence of different PKC isoforms. The activity of the isoform was assessed as amount of PKC in the membrane fraction divided by the total amount of protein in both fractions (cytosol and membrane), normalized to control.
compound,measurement,setting,value
"CCCCCCCCCCCCCC(=O)O[C@@H]1[C@@H](C)[C@@]2(O)[C@@H](C=C(CO)C[C@]3(O)C(=O)C(C)=C[C@@H]23)[C@@H]2C(C)(C)[C@]12OC(C)=O [PMA, phorbol 12-myristate 13-acetate, reference compound]",increase in ROS in the cells,"[1]; PMA 500 ng/mL, tempoamine 100 μM",3-4 fold
O=C1CSC(=O)N1 [TZD1],ROS production in aorta homogenates,[2],brought the ROS production down to control levels
"MRAAEDPM (not fully specified; also: Tat conjugated; listed as Rattus norvegicus) [ψδRACK, δPKC agonist peptide, amino acids 74-81 of δPKC]",production of ROS,"[1]; Tat-conjugated peptide 10 μM, tempoamine 100 μM, versus untreated control",increased production of ROS
"SFNSYELGSL (not fully specified; also: Tat conjugated; listed as Rattus norvegicus) [δV1-1, δPKC antagonist peptide, amino acids 8-17 of δPKC]",ROS production stimulated by PMA,[1]; Tat-conjugated peptide 10 μM co-incubated with PMA 500 ng/mL,effective to reverse or inhibit a significant part of the ROS production stimulated by PMA
same,TGF-β1 expression,"TGF-β1; cells incubated with Tat-conjugated peptide versus untreated control, FIG. 5B",inhibited
same,Cbfa-1 gene expression,Cbfa-1,inhibited
insulin: bovine insulin incubated with rat vascular smooth muscle cells,"relative δPKC activity (membrane fraction / total, normalized to control)",δPKC,about 1.7
same,normalized TGF-β expression,"TGF-β1; cells incubated with insulin (100 nm) versus untreated control, FIG. 5A",did not appear to stimulate
